In PubChem BioAssay (NCI):
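Tested at 5 concentrations; 48 h exposure; 96-well plates; endpoints linearly interpolated, else capped at highest concentration. Abbreviation: GI50, concentration required for 50% inhibition of growth. TGI: concentration producing complete growth inhibition.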

How the values were obtained:
Experiment in all cases: inhibition of tumour cell growth, NCI panel, 48 h
[1] = system: 786-0 renal
[2] = system: A498 renal
[3] = system: A549 NSCLC
[4] = system: ACHN renal
[5] = system: BT-549 breast
[6] = system: CAKI-1 renal
[7] = system: CCRF-CEM leukemia
[8] = system: COLO 205 colon
[9] = system: DU-145 prostate
[10] = system: EKVX NSCLC
[11] = system: HCC-2998 colon
[12] = system: HCT-116 colon
[13] = system: HCT-15 colon
[14] = system: HL-60(TB) leukemia
[15] = system: HOP-62 NSCLC
[16] = system: HOP-92 NSCLC
[17] = system: HS 578T breast
[18] = system: HT29 colon
[19] = system: IGROV1 ovarian
[20] = system: K-562 leukemia
[21] = system: KM12 colon
[22] = system: LOX IMVI melanoma
[23] = system: M14 melanoma
[24] = system: MALME-3M melanoma
[25] = system: MCF7 breast
[26] = system: MDA-MB-231 breast
[27] = system: MDA-MB-435
[28] = system: MDA-MB-468 breast
[29] = system: MOLT-4 leukemia
[30] = system: NCI-H226 lung
[31] = system: NCI-H23 lung
[32] = system: NCI-H460 lung
[33] = system: NCI-H522 lung
[34] = system: OVCAR-3 ovarian
[35] = system: OVCAR-4 ovarian
[36] = system: OVCAR-5 ovarian
[37] = system: OVCAR-8 ovarian
[38] = system: PC-3 prostate
[39] = system: RPMI-8226 leukemia
[40] = system: RXF 393 renal
[41] = system: SF-268 CNS
[42] = system: SF-295 CNS
[43] = system: SF-539 CNS
[44] = system: SK-MEL-2 melanoma
[45] = system: SK-MEL-28 melanoma
[46] = system: SK-MEL-5 melanoma
[47] = system: SK-OV-3 ovarian
[48] = system: SN12C renal
[49] = system: SNB-19 CNS
[50] = system: SNB-75 CNS
[51] = system: SR leukemia
[52] = system: SW-620 colon
[53] = system: T-47D breast
[54] = system: TK-10 renal
[55] = system: U251 CNS
[56] = system: UACC-257 melanoma
[57] = system: UACC-62 melanoma
[58] = system: UO-31 renal

COc1ccc(-c2ccnc(SCc3cc4cc(Cl)ccc4[nH]c3=O)n2)cc1
GI50 [1]: 15.1 µM
TGI [1]: 36.5 µM
GI50 [2]: 17.5 µM
TGI [2]: 46.2 µM
GI50 [3]: 15.6 µM
TGI [3]: > 100 µM
GI50 [4]: 5.64 µM
TGI [4]: 19.8 µM
GI50 [5]: 6.21 µM
TGI [5]: 33.2 µM
GI50 [6]: 7.7 µM
TGI [6]: 27.1 µM
GI50 [7]: 16 µM
TGI [7]: > 100 µM
GI50 [8]: 44.8 µM
TGI [8]: > 100 µM
GI50 [9]: 10.2 µM
TGI [9]: 24.2 µM
GI50 [10]: 12.2 µM
TGI [10]: 64.9 µM
GI50 [11]: 27.6 µM
TGI [11]: > 100 µM
GI50 [12]: 14 µM
TGI [12]: > 100 µM
GI50 [13]: 29 µM
TGI [13]: > 100 µM
GI50 [14]: > 100 µM
TGI [14]: > 100 µM
GI50 [15]: 3.45 µM
TGI [15]: 16.6 µM
GI50 [16]: 5.49 µM
TGI [16]: 39.8 µM
GI50 [17]: 2.77 µM
TGI [17]: 9.75 µM
GI50 [18]: 53.6 µM
TGI [18]: > 100 µM
GI50 [19]: 27.1 µM
TGI [19]: > 100 µM
GI50 [20]: 31.2 µM
TGI [20]: > 100 µM
GI50 [21]: 19.9 µM
TGI [21]: > 100 µM
GI50 [22]: 15 µM
TGI [22]: > 100 µM
GI50 [23]: 25 µM
TGI [23]: > 100 µM
GI50 [24]: 4.72 µM
TGI [24]: 27.4 µM
GI50 [25]: 8.74 µM
TGI [25]: 58.1 µM
GI50 [26]: 9.03 µM
TGI [26]: 32.2 µM
GI50 [27]: 14.4 µM
TGI [27]: > 100 µM
GI50 [28]: 5.59 µM
TGI [28]: 35.9 µM
GI50 [29]: 38.6 µM
TGI [29]: > 100 µM
GI50 [30]: 2.96 µM
TGI [30]: 10.4 µM
GI50 [31]: 13.7 µM
TGI [31]: 45.1 µM
GI50 [32]: 5.63 µM
TGI [32]: 58.7 µM
GI50 [33]: 5.18 µM
TGI [33]: 32.4 µM
GI50 [34]: 9.93 µM
TGI [34]: 27.2 µM
GI50 [35]: 3.85 µM
TGI [35]: 24.5 µM
GI50 [36]: 21 µM
TGI [36]: 85.8 µM
GI50 [37]: 4.9 µM
TGI [37]: > 100 µM
GI50 [38]: 6.9 µM
TGI [38]: 45.7 µM
GI50 [39]: 16.8 µM
TGI [39]: > 100 µM
GI50 [40]: 2.27 µM
TGI [40]: 8.31 µM
GI50 [41]: 3.41 µM
TGI [41]: 20.4 µM
GI50 [42]: 5.49 µM
TGI [42]: 26.8 µM
GI50 [43]: 3.16 µM
TGI [43]: 14.8 µM
GI50 [44]: 14.6 µM
TGI [44]: 39.2 µM
GI50 [45]: 7.39 µM
TGI [45]: 31.6 µM
GI50 [46]: 14.2 µM
TGI [46]: 71.6 µM
GI50 [47]: 4.97 µM
TGI [47]: 21.2 µM
GI50 [48]: 11.6 µM
TGI [48]: > 100 µM
GI50 [49]: 3.7 µM
TGI [49]: 28.6 µM
GI50 [50]: 1.69 µM
TGI [50]: 3.98 µM
GI50 [51]: 21.6 µM
TGI [51]: > 100 µM
GI50 [52]: 26.2 µM
TGI [52]: > 100 µM
GI50 [53]: 19.7 µM
TGI [53]: > 100 µM
GI50 [54]: 26.3 µM
TGI [54]: 90 µM
GI50 [55]: 13.5 µM
TGI [55]: 46.6 µM
GI50 [56]: 16.4 µM
TGI [56]: 82 µM
GI50 [57]: 14.8 µM
TGI [57]: 53.2 µM
GI50 [58]: 14.5 µM
TGI [58]: 54.4 µM
